# In patent US20220031684A1, “PROPHYLACTIC EFFICACY OF SEROTONIN 4 RECEPTOR AGONISTS AGAINST STRESS” (THE TRUSTEES OF COLUMBIA UNIVERSITY IN THE CITY OF NEW YORK, priority 2019, published 2022):
# Structures can show the parent of a compound that is named as a salt.
# Columns and labels:
# Type in all cases: in vivo
# BALB/cJRj mice [1] = assay: Elevated plus maze (EPM), acute anxiolytic-like effect
# Description: RS67333 (1.5 mg/kg, i.p.), diazepam (1.5 mg/kg, i.p.), fluoxetine (18 mg/kg, i.p.) were injected 45 min before testing in the Elevated Plus Maze (EPM), the Novelty Suppressed Feeding (NSF) or the Open Field (OF) in three independent cohorts of male BALB/cJRj mice.
# To ensure the selectivity of the anxiolytic-like effects of RS67333, in a new cohort of male BALB/cJRj mice, GR125487 (1.0 mg/kg, i.p.) dissolved in 0.9% NaCl solution, was injected 15 minutes before RS67333 administration (1.5 mg/kg, i.p.). EPM or NSF occurred 45 min after RS67333 administration (A-S1). Behavioral consequences of the co-administration of GR125487+RS67333 were compared to RS67333 alone, diazepam (1.5 mg/kg, i.p.) fluoxetine (18 mg/kg, i.p.) and vehicle groups (0.9% saline solution, i.p.).
# For mPFC drug infusion, two bilateral cannulae (75 μm-diameter silica capillary tubing inserted in 27G stainless steel catheter) were implanted in the mPFC [stereotaxic coordinates in mm from bregma: A=+2.10, L=±0.50, V=−2.60, A, anterior; L, lateral; and V, ventral, according to (A-S10)] under anesthesia (chloral hydrate, 400 mg/kg, i.p.). […] Diazepam (1.5 mg/kg) was used as a positive control.
# In a new cohort of male BALB/cJRj mice, p-CPA was administered twice daily (at 0900 and 1700 h) for 3 consecutive days. RS67333 ([…]) and diazepam ([…]) were then intra-mPFC administered 24 h after the final p-CPA administration and behavioral test (EPM) occurred 45 minutes after local infusion.
# The EPM is a widely used behavioral assay for rodents and it has been validated to assess the anti-anxiety effects of pharmacological agents (A-S11). This test was performed as described by (A-S1). The maze is a plus-cross-shaped apparatus, with two open arms and two arms closed by walls linked by a central platform 50 cm above the floor. Mice were individually put in the center of the maze facing an open arm and were allowed to explore the maze during 5 min for the behavioral consequences of an acute systemic administration or mPFC infusion and during 6 min for the optogenetic experiments. The time spent in and the numbers of entries into the open arms were used as an anxiety index. All parameters were measured using a videotracker (EPM3C, Bioseb, Vitrolles, France).
# BALB/cJRj mice [2] = assay: Open field paradigm (OF), acute anxiolytic-like effect; conditions: for percent time spent in Center (OF) vs vehicle: male BALB/cJRj, RS67333 1.5, diazepam 1.5, fluoxetine 18 mg/kg; for time spent in the center of the OF: single dose 1.5 mg/kg, 48 hours after the injection
# From the text: Motor activity was quantified in four 39×39 cm perpex plastic open field boxes (Vivo-tech/Ugo Basile, Salon de Provence, France). The apparatus was illuminated from the ground with special designed 40×40 cm Infra-red backlights (monochromatic wavelength 850 nm high homogeneity, Vivo-tech, Salon de Provence, France). Activity chambers were monitored by four black and white cameras with varifocal optics and polarizing filters (Vivo-tech, Salon de Provence, France). For optogenetic experiments, optical bandpass filters were specifically selected to improve tracking detection. The whole set-up was controlled using ANYMAZE version 6 video tracking software (Stoelting Co/Vivo-tech, Salon de Provence, France). Dependent measures were time in the center over a 10 min for systemic administration or 6 min test period for optogenetic experiments, total ambulatory distance and ambulatory distance traveled in the center divided by total distance.
# BALB/cJRj mice [3] = assay: Elevated plus maze (EPM), acute anxiolytic-like effect; conditions: single dose 1.5 mg/kg; 24 hours after the injection
smiles,measurement,setting,value
"CN1C(=O)CN=C(c2ccccc2)c2cc(Cl)ccc21 [diazepam, Diazepam hydrochloride]",ratio of ambulatory distance in the open arms divided by total distance (EPM) vs vehicle,"BALB/cJRj mice [1]; i.p. 45 min before testing, RS67333 1.5 mg/kg, diazepam 1.5 mg/kg",significantly increased
same,time and percent time spent in the open arms (EPM) vs vehicle,"BALB/cJRj mice [1]; intra-mPFC infusion 45 min before testing, RS67333 0.5 pg/side (1 pg), diazepam 1.5 pg/side","increased time, percent time spent in the open arms"
same,time and percent time spent in the open arms (EPM) vs vehicle,"BALB/cJRj mice [1]; male BALB/cJRj, i.p. 45 min before testing, RS67333 1.5 mg/kg, diazepam 1.5 mg/kg, hydrochloride",significantly increased time and percent time spent in the open arms
same,"drug-induced increase in time, percent time in open arms and ratio open arms/total distance (EPM) in 5-HT-depleted p-CPA mice","BALB/cJRj mice [1]; p-CPA pre-treatment 3 days, intra-mPFC RS67333 0.5 pg/side or diazepam 1.5 pg/side",abolished
same,ratio of ambulatory distance in the center divided by total distance (OF) vs vehicle,"BALB/cJRj mice [2]; i.p. 45 min before testing, RS67333 1.5, diazepam 1.5 mg/kg",significantly increased
same,percent time spent in Center (OF) vs vehicle,BALB/cJRj mice [2]; i.p. 45 min before testing,increase
same,time spent in the center of the OF,BALB/cJRj mice [2],have not been able to observe any long-term activity
same,anxiolytic effects in the EPM,BALB/cJRj mice [3],have not been able to observe any long-term activity
"CCCCN1CCC(CCC(=O)c2cc(Cl)c(N)cc2OC)CC1.Cl [RS-67,333, 1-(4-amino-5-chloro-2-methoxyphenyl)-3-[1(n-butyl)-4-piperidinyl]-1-propanone HCl]",time and percent time spent in the open arms (EPM) vs vehicle,"BALB/cJRj mice [1]; intra-mPFC infusion 45 min before testing, RS67333 0.5 pg/side (1 pg), diazepam 1.5 pg/side, HCl",significantly increased time and percent time spent in the open arms
same,time and percent time spent in the open arms (EPM) vs vehicle,"BALB/cJRj mice [1]; male BALB/cJRj, i.p. 45 min before testing, RS67333 1.5 mg/kg, diazepam 1.5 mg/kg",increased
same,percent time spent in Center (OF) vs vehicle,BALB/cJRj mice [2]; i.p. 45 min before testing,increase
same,time spent in the center of the OF,BALB/cJRj mice [2],increased the time spent in the center
same,anxiolytic effects in the EPM,BALB/cJRj mice [3],have not identified the anxiolytic effects expected
